Results taken from the supplement of paper PMC13380429.

Tests used:
Details in all cases: 72 h
[1] = test system: U2OS; assay: relative viability EC50 (midpoint between 100% and the lowest measured viability); higher = less toxic
[2] = test system: Vero E6; assay: as above
[3] = test system: HepG2; assay: as above
[4] = test system: Calu-3; assay: as above
[5] = test system: Caco-2; assay: as above
[6] = test system: U2OS; assay: cell viability relative to DMSO; higher = less toxic
[7] = test system: Vero E6; assay: as above
[8] = test system: HepG2; assay: as above
[9] = test system: Calu-3; assay: as above
[10] = test system: Caco-2; assay: as above
[11] = test system: U2OS; assay: drug sensitivity score (DSS) for viability; higher = more toxic; extreme values may be limits of the assay
[12] = test system: Vero E6; assay: as above
[13] = test system: HepG2; assay: as above
[14] = test system: Calu-3; assay: as above
[15] = test system: Caco-2; assay: as above

Structure (SMILES)	relative viability EC50 [1]	relative viability EC50 [2]	relative viability EC50 [3]	relative viability EC50 [4]	relative viability EC50 [5]	cell viability ([6]; 1 nM)	cell viability ([6]; 10 nM)	cell viability ([6]; 100 nM)	cell viability ([6]; 1000 nM)	cell viability ([6]; 10000 nM)	cell viability ([7]; 1 nM)	cell viability ([7]; 10 nM)	cell viability ([7]; 100 nM)	cell viability ([7]; 1000 nM)	cell viability ([7]; 10000 nM)	cell viability ([8]; 1 nM)	cell viability ([8]; 10 nM)	cell viability ([8]; 100 nM)	cell viability ([8]; 1000 nM)	cell viability ([8]; 10000 nM)	cell viability ([9]; 1 nM)	cell viability ([9]; 10 nM)	cell viability ([9]; 100 nM)	cell viability ([9]; 1000 nM)	cell viability ([9]; 10000 nM)	cell viability ([10]; 1 nM)	cell viability ([10]; 10 nM)	cell viability ([10]; 100 nM)	cell viability ([10]; 1000 nM)	cell viability ([10]; 10000 nM)	drug sensitivity score [11]	drug sensitivity score [12]	drug sensitivity score [13]	drug sensitivity score [14]	drug sensitivity score [15]
Cc1cccc(Nc2ccccc2C(=O)O)c1C [mefenamic-acid]	> 10 µM	> 10 µM	> 10 µM	> 10 µM	> 10 µM	106%	97%	101%	97.1%	101%	106%	108%	100%	104%	92%	101%	94.4%	100%	97.4%	91.4%	89.9%	96.4%	97.7%	98.9%	97.6%	97.5%	101%	97.1%	96.4%	99.3%	0	0	0	0	0
[O-][n+]1cccc(CO)c1 [mepiroxol]	> 10 µM	> 10 µM	> 10 µM	> 10 µM	> 10 µM	100%	99.2%	104%	99.2%	99.2%	92.1%	97.9%	89.3%	98.9%	108%	90.9%	118%	104%	96.3%	97%	103%	112%	99.4%	109%	104%	97.3%	95.1%	94.3%	104%	103%	0	0	0	0	0
CC(=O)/N=c1/sc(S(N)(=O)=O)nn1C [methazolamide]	> 10 µM	> 10 µM	> 10 µM	> 10 µM	> 10 µM	105%	107%	104%	98.3%	102%	97%	99%	98.2%	98.4%	92.7%	101%	97.6%	101%	101%	102%	100%	99.4%	93.7%	98.3%	107%	110%	101%	100%	94%	96.7%	0	0	0	0	0
COc1cccc(OC)c1C(=O)N[C@@H]1C(=O)N2[C@@H]1SC(C)(C)[C@@H]2C(=O)O [methicillin]	> 10 µM	> 10 µM	> 10 µM	> 10 µM	> 10 µM	105%	94.7%	99.6%	99%	99.8%	107%	98.6%	94.9%	102%	87.9%	96%	96.1%	87%	106%	107%	105%	99.1%	97%	99.1%	102%	95.2%	97.2%	101%	91.4%	96.5%	0	0	0	0	0
CC[C@@H](CO)NC(=O)[C@@H]1C=C2c3cccc4[nH]cc(c34)C[C@H]2N(C)C1 [methylergometrine]	> 10 µM	> 10 µM	> 10 µM	> 10 µM	> 10 µM	96.2%	99.1%	102%	98.5%	104%	106%	101%	100%	102%	99.8%	98.6%	102%	97.5%	110%	93.6%	96.9%	98.3%	99.4%	86.2%	91.2%	97.6%	98%	96.2%	96.7%	99.5%	0	0	0	1.1	0
CCN1C[C@]2(COC(=O)c3ccccc3N3C(=O)C[C@H](C)C3=O)CC[C@H](OC)[C@@]34[C@@H]5C[C@H]6[C@H](OC)[C@@H]5[C@](O)(C[C@@H]6OC)[C@](O)([C@@H](OC)[C@H]23)[C@@H]14 [methyllycaconitine]	> 10 µM	> 10 µM	> 10 µM	> 10 µM	> 10 µM	97.1%	94.5%	95.8%	96.3%	94.7%	104%	102%	101%	102%	97.8%	96.3%	102%	99.4%	95.2%	101%	97.3%	102%	90.3%	91.1%	98.6%	108%	96.1%	103%	97%	98.1%	0	0	0	0	0
